Patent US10260039B2, “Microgels and microtissues for use in tissue engineering” (Massachusetts Institute of Technology, priority 2011, dated 2019)

Columns and labels:
[1] = test system: 3D engineered liver tissues; assay: hepatic function of 3D engineered liver tissues (albumin secretion); format: cell-based, human
Excerpt: FIG. 10. A) Albumin secretion as a measure of hepatic phenotype, elevated in the presence of fibroblasts and RGDS peptide. B) Luminex bead measurements of human drug metabolism enzyme genes, showing upregulation of the genes in 3D as opposed to 2D, in various phases of drug metabolism.
More recently, it has been possible to extend the function of 3D engineered liver tissues even further, by addition of a micropatterning step pre-encapsulation (FIG. 11).

[2] = test system: encapsulated tumor cells; assay: 3D proliferation of encapsulated tumor cells in microtissues (large-particle flow analyzer); format: cell-based
Excerpt: FIG. 16. Microtissue proliferation modulated by (a) incorporated extracellular matrix molecules, or (b) culture in soluble growth factors.
FIG. 17. Differences in tumor cell responses to small molecules in 2D vs. 3D culture. (a) Comparison of proliferation rates on 2D-microplate and 3D-microtissue formats relative to untreated controls. (b) Growth curve over time of tumor cells in 2D measured by microplate fluorescence, and (c) Growth curve over time of tumor cells in 3D measured by gel dissolution and DNA quantitation.
The in vitro 3D tumor model platform combines the split-injection encapsulation chip described in detail above with a large-particle flow analyzer and sorter (COPAS Biosort by Union Biometrica). Cells are first encapsulated within microtissues (˜5000/min) that can contain tumor cells, stromal cells, and various entrapped ECM. These microtissues are then further enriched using the flow sorter that measures the fluorescence intensity each microtissue, correlating with the density of zs-green tumor cells in each microtissue. (FIG. 15a), and can sort the microtissues (˜25 selected/min) into low, medium, and high homotypic cell density bins (FIG. 15b). […] Selected populations of microtissues are then exposed to stimuli in culture such as growth factors and inhibitors, and their proliferation over days is detected on a population level (FIG. 15b).

## RGDS: adhesive peptide (SEQ ID NO: 1), acrylate-PEG-RGDS incorporated in hydrogel; ligates α5β1 integrin (not fully specified; acrylate-PEG conjugate in hydrogel)
[1]; 3D culture, ligation of α5β1 integrin via RGDS (FIG. 10A)
  hepatic functions: further improved hepatic functions
[1]; in the presence of fibroblasts and RGDS peptide (FIG. 10A)
  albumin secretion as a measure of hepatic phenotype: elevated

## TGF-β
[2]; exogenous growth factor in culture, 3D microtissues (FIG. 16)
  slowing of 3D proliferation of encapsulated tumor cells: ~80%

## fibronectin
[2]; extracellular matrix protein incorporated in microtissues (FIG. 16)
  3D proliferation (growth) of encapsulated tumor cells: promoted growth
